Test results as given in ChEMBL document CHEMBL3853273, “Multi-target screening mines hesperidin as a multi-potent inhibitor: Implication in Alzheimer's disease therapeutics” (Eur J Med Chem, 2016).
Active and inactive are the calls of the source. No cut-off for these calls is given here.

Tests used:
[1] = Antioxidant activity of the compound assessed as inhibition of fenton reaction-induced DNA strand cleavage of plasmid pcDNA Hismyc B4 after 1 hr by ethidium bromide staining-based agarose gel electrophoresis; format: functional
[2] = biological target: Beta-secretase 1 (Homo sapiens) (UniProt P56817); test: Binding affinity to BACE1 (unknown origin) in acetate buffer at pH 4.8 at 0.25 to 5 uM by steady state spectrofluorimeter
[3] = biological target: Beta-secretase 1 (Homo sapiens) (UniProt P56817); test: Binding affinity to BACE1 (unknown origin) in acetate buffer at pH 4.8 at 250 nM by steady state spectrofluorimeter
[4] = biological target: Beta-secretase 1 (Homo sapiens) (UniProt P56817); test: Binding affinity to BACE1 (unknown origin) in PBS at pH 7.4 up to 10 uM by steady state spectrofluorimeter
[5] = biological target: Beta-secretase 1 (Homo sapiens) (UniProt P56817); test: Binding affinity to BACE1 (unknown origin) in acetate buffer at pH 4.8 assessed as increase in lifetime species of excited tryptophan in active site at 5 uM by time-resolved fluorescence spectroscopy relative to control
[6] = biological target: Beta-secretase 1 (Homo sapiens) (UniProt P56817); test: Binding affinity to BACE1 (unknown origin) by fluorescence titration method
[7] = biological target: Beta-secretase 1 (Homo sapiens) (UniProt P56817); test: Inhibition of BACE1 (unknown origin) at 500 nM incubated for 2 hrs by FRET assay relative to control
[8] = biological target: Amyloid-beta precursor protein (Homo sapiens) (UniProt P05067); test: Inhibition of amyloid beta (25 to 35 residues) (unknown origin) aggregation at 20 uM incubated for 3 days by intrinsic flavonoid fluorescence assay
[9] = biological target: Amyloid-beta precursor protein (Homo sapiens) (UniProt P05067); test: Inhibition of amyloid beta (25 to 35 residues) (unknown origin) aggregation at 20 uM incubated for 3 days by 8-anilino-1-naphthalene-based fluorescence spectrophotometric method
[10] = biological target: Amyloid-beta precursor protein (Homo sapiens) (UniProt P05067); test: Inhibition of amyloid beta (25 to 35 residues) (unknown origin) aggregation at 20 uM incubated for 3 days by thioflavin T-based fluorescence spectrophotometric method
[11] = biological target: Amyloid-beta precursor protein (Homo sapiens) (UniProt P05067); test: Inhibition of amyloid beta (25 to 35 residues) (unknown origin) aggregation at 10 uM incubated for 3 days by thioflavin T-based fluorescence spectrophotometric method relative to control
[12] = biological target: Amyloid-beta precursor protein (Homo sapiens) (UniProt P05067); test: Inhibition of amyloid beta (25 to 35 residues) (unknown origin) aggregation at 100 uM incubated for 7 days by atomic force microscopic method
[13] = Antioxidant activity of the compound assessed as ABTS free radical scavenging activity; format: functional
[14] = Antioxidant activity of the compound assessed as inhibition of fenton reaction-induced DNA strand cleavage of plasmid pcDNA Hismyc B4 at 250 uM after 1 hr by ethidium bromide staining-based agarose gel electrophoresis; format: functional

Chain of Amyloid-beta precursor protein (Homo sapiens) (P05067 whole entry, the tested form may be a part): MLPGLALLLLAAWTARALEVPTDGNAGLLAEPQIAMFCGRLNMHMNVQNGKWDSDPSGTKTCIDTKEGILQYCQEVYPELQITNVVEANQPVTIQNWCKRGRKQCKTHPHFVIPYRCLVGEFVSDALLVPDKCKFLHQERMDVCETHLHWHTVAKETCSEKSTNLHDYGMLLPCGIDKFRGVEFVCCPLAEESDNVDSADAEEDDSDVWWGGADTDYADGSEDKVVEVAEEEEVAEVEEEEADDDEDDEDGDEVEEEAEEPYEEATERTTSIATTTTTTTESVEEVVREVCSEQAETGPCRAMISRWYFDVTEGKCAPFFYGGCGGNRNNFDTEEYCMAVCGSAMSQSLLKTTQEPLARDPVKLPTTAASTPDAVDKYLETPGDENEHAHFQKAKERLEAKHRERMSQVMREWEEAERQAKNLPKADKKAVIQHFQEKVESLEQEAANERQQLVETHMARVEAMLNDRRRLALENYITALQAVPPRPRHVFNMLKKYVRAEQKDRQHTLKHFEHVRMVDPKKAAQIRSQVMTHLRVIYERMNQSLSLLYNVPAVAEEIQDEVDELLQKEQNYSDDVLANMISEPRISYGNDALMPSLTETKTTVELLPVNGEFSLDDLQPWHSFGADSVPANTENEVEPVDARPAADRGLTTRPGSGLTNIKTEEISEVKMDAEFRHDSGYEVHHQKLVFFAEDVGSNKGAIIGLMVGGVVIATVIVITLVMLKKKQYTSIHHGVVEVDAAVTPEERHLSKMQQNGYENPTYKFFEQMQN
Chain of Beta-secretase 1 (Homo sapiens) (P56817 whole entry, the tested form may be a part): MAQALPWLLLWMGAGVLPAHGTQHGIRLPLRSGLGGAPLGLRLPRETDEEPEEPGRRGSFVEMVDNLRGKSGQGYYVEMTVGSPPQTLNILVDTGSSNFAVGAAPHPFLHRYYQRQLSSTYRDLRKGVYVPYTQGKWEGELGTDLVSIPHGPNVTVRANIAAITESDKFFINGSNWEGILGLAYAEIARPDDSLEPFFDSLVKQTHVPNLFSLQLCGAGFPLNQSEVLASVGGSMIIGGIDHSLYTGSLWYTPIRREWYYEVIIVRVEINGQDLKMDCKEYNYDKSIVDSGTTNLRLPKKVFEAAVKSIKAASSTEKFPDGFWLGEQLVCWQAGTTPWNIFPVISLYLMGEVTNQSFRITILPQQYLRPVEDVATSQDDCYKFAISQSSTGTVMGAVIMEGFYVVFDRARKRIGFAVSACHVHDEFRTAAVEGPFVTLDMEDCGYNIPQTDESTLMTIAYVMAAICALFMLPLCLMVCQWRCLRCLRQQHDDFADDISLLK

Row | Activity [2] | Activity [3] | Activity [4] | fold change (FC) [5] | K [6] | inhibition [7] [%] | inhibition [8] | inhibition [9] | inhibition [10] | inhibition [11] [%] | inhibition [12] | IC50 [13] [µM] | SMILES | inhibition [1] | Activity [13] | inhibition [14]
1 | – | – | – | – | – | – | – | – | – | – | – | – | Cc1c(C)c2c(c(C)c1O)CCC(C)(C(=O)O)O2 (stereo not given) | Active | – | –
2 | Active | Active | Active | 2.5 | 302000 | 100 | Active | Active | Active | 40 | Active | 16.5 | COc1ccc([C@@H]2CC(=O)c3c(O)cc(O[C@@H]4O[C@H](CO[C@@H]5O[C@@H](C)[C@H](O)[C@@H](O)[C@H]5O)[C@@H](O)[C@H](O)[C@H]4O)cc3O2)cc1O [HESPERIDIN] | – | Dose-dependent effect | Active
